Source: patent EP1953147A1, “HETEROCYCLIC COMPOUND AND MEDICINAL APPLICATION THEREOF” (priority 2005, dated 2007)

tested on: ΔG/SEAP/HCV E1E2; experiment: Effect of test substance on cell infection with HCV pseudotype virus (SEAP reporter assay in HepG2 cells); format: cell-based; conditions: Hepatitis C virus

| SMILES | IC50 [nM] |
| --- | --- |
| COc1cc(OC)cc(-c2nn(-c3cc(NCC(=O)N(C)C)ccc3C(F)(F)F)c(=O)c3c2CCC3)c1 [Example 125, 2-{3-[4-(3,5-dimethoxy-phenyl)-1-oxo-1,5,6,7-tetrahydro-cyclopenta[d]pyridazin-2-yl]-4-trifluoromethyl-phenylamino}-N,N-dimethyl-acetamide] | < 100 |
| CNC(=O)CCCNc1ccc(C(F)(F)F)c(-n2nc(-c3cc(OC)cc(OC)c3)c3c(c2=O)CCC3)c1 [Example 153, 4-{3-[4-(3,5-dimethoxy-phenyl)-1-oxo-1,5,6,7-tetrahydro-cyclopenta[d]pyridazin-2-yl]-4-trifluoromethyl-phenylamino}-N-methyl-butyramide] | < 100 |
| COc1cc(OC)cc(-c2nn(-c3ccc(N(C)C)cc3C(F)(F)F)c(=O)c3c2CCC3)c1 [Example 108, 4-(3,5-dimethoxy-phenyl)-2-(4-dimethylamino-2-trifluoromethyl-phenyl)-2,5,6,7-tetrahydro-cyclopenta[d]pyridazin-1-one] | 100 to 10000 |
| CC(=O)N[C@@H]1CCN(c2ccc(C(F)(F)F)c(-n3nc(-c4cc(C)cc(C)c4)c4c(c3=O)N(CC(N)=O)CC4)c2)C1 [Example 1-27, {6-[5-((R)-3-acetylamino-pyrrolidin-1-yl)-2-trifluoromethyl-phenyl]-4-(3,5-dimethyl-phenyl)-7-oxo-2,3,6,7-tetrahydro-pyrrolo[2,3-d]pyridazin-1-yl}-acetamide] | < 100 |
| CCOC(=O)N1CCc2c(-c3cc(OC)cc(OC)c3)nn(-c3cc(N4CC[C@H](O)C4)ccc3C(F)(F)F)c(=O)c21 [Example 60, 4-(3,5-dimethoxy-phenyl)-6-[5-((S)-3-hydroxy-pyrrolidin-1-yl)-2-trifluoromethyl-phenyl]-7-oxo-2,3,6,7-tetrahydro-pyrrolo[2,3-d]pyridazine-1-carboxylic acid ethyl ester] | < 100 |
| COc1ccc(-c2nn(-c3cc(N4CC[C@H](O)C4)ccc3C(F)(F)F)c(=O)c3c2CCC3)cc1 [Example 77, 2-[5-((S)-3-hydroxy-pyrrolidin-1-yl)-2-trifluoromethyl-phenyl]-4-(4-methoxy-phenyl)-2,5,6,7-tetrahydro-cyclopenta[d]pyridazin-1-one] | < 100 |
| COc1cc(OC)cc(-c2nn(-c3cc(Nc4ccccc4)ccc3C(F)(F)F)c(=O)c3c2CCC3)c1 [Example 134, 4-(3,5-dimethoxy-phenyl)-2-(5-phenylamino-2-trifluoromethyl-phenyl)-2,5,6,7-tetrahydro-cyclopenta[d]pyridazin-1-one] | 100 to 10000 |
| O=c1c2c(c(-c3cccc(C(F)(F)F)c3)nn1-c1cc(N3CC[C@H](O)C3)ccc1C(F)(F)F)CCC2 [Example 74, 2-[5-((S)-3-hydroxy-pyrrolidin-1-yl)-2-trifluoromethyl-phenyl]-4-(3-trifluoromethyl-phenyl)-2,5,6,7-tetrahydro-cyclopenta[d]pyridazin-1-one] | < 100 |
| COc1cc(OC)cc(-c2nn(-c3cc(NC4CCCC4)ccc3C(F)(F)F)c(=O)c3c2CCC3)c1 [Example 146, 2-(5-cyclopentylamino-2-trifluoromethyl-phenyl)-4-(3,5-dimethoxy-phenyl)-2,5,6,7-tetrahydro-cyclopenta[d]pyridazin-1-one] | < 100 |
| COc1cc(OC)cc(-c2nn(-c3cc(NCCN(C)C)ccc3C(F)(F)F)c(=O)c3c2CCC3)c1 [Example 116, 4-(3,5-dimethoxy-phenyl)-2-[5-(2-dimethylamino-ethylamino)-2-trifluoromethyl-phenyl]-2,5,6,7-tetrahydro-cyclopenta[d]pyridazin-1-one] | < 100 |
| COc1cc(OC)cc(-c2nn(-c3cc(NC(C)=O)ccc3C(F)(F)F)c(=O)c3c2CCC3)c1 [Example 159, N-{3-[4-(3,5-dimethoxy-phenyl)-1-oxo-1,5,6,7-tetrahydro-cyclopenta[d]pyridazin-2-yl]-4-trifluoromethyl-phenyl}-acetamide] | < 100 |
| COc1cc(OC)cc(-c2nn(-c3cc(NCCCO)ccc3C(F)(F)F)c(=O)c3c2CCC3)c1 [Example 130, 4-(3,5-dimethoxy-phenyl)-2-[5-(3-hydroxy-propylamino)-2-trifluoromethyl-phenyl]-2,5,6,7-tetrahydro-cyclopenta[d]pyridazin-1-one] | < 100 |
| Cc1cc(C)cc(-c2nn(-c3cc(-c4cccnn4)ccc3C(F)(F)F)c(=O)c3c2CCN3)c1 [Example 10, 4-(3,5-dimethyl-phenyl)-6-(5-pyridazin-3-yl-2-trifluoromethyl-phenyl)-1,2,3,6-tetrahydro-pyrrolo[2,3-d]pyridazin-7-one] | < 100 |
| Cc1cc(-c2cnco2)cc(-c2nn(-c3cc(-c4cccnn4)ccc3C(F)(F)F)c(=O)c3c2CCC3)c1 [Example 3, 4-(3-methyl-5-oxazol-5-yl-phenyl)-2-(5-pyridazin-3-yl-2-trifluoromethyl-phenyl)-2,5,6,7-tetrahydro-cyclopenta[d]pyridazin-1-one] | < 100 |
| CNc1ccc(C(F)(F)F)c(-n2nc(-c3cc(OC)cc(OC)c3)c3c(c2=O)CCC3)c1 [Example 82, 4-(3,5-dimethoxy-phenyl)-2-(5-methylamino-2-trifluoromethyl-phenyl)-2,5,6,7-tetrahydro-cyclopenta[d]pyridazin-1-one] | < 100 |
| COc1cc(C)cc(-c2nn(-c3cc(-c4cccnn4)ccc3C(F)(F)F)c(=O)c3c2CCN3)c1 [Example 13, 4-(3-methoxy-5-methyl-phenyl)-6-(5-pyridazin-3-yl-2-trifluoromethyl-phenyl)-1,2,3,6-tetrahydro-pyrrolo[2,3-d]pyridazin-7-one] | < 100 |
